Article PMC5413848, “Optimization of intestinal microsomal preparation in the rat: A systematic approach to assess the influence of various methodologies on metabolic activity and scaling factors” (Biopharmaceutics & Drug Disposition, 2017)
Where “and” joins values, the source holds several entries; their conditions need not be identical. Identical values can stand only once.

What was measured:
[1] = CYP activity: testosterone metabolite formation in rat intestinal microsomes; format: in vitro ADME; details: for Maximal rate of testosterone metabolite formation: 100 μM testosterone, 1 mg/ml
Procedure: The CYP enzyme activities were determined for the in‐house and commercial intestinal microsomes using the probe substrate testosterone. Testosterone metabolites and the respective rat cyp isoforms responsible for their formation are shown in Supplemental material Table 1 33. […] The reactions were initiated by the addition of testosterone. Samples were taken at 5, 15, 30 and 60 min. […] Following optimization of the bioanalytical methodology to improve reproducibility and sensitivity based on increasing the efficiency of protein precipitation 37, the samples were quenched 1:2 (sample: quench) in ice cold acetonitrile containing internal standard (1 μM 11‐β OH TEST) and stored overnight at −20°C. The following day, the plates were spun at 3000 rpm for 15 min, and 50 μl supernatant was diluted in 200 μl UPH2O. Samples were quantified using a Waters Acquity UPLC system with a PDA coupled to a G2 Q‐ToF MS (Waters, Milford, MA, USA), and a Acquity UPLC BEH C18 column, 130 Å, 1.7 μm, 2.1 mm × 100 mm and Acquity UPLC column with an in‐Line Filter Kit made up of the same phase (Waters). The sample (25 μl) was detected using an electrospray interface in positive mode, and source and desolvation temperatures, and desolvation and cone gas flows were 120°C and 400°C, and 800 l/h and 20 l/h, respectively. The cone voltage was 30 V. The elution times and LLOQ of testosterone and its hydroxy metabolites are shown in Supplemental material Table 2. The quantification of testosterone metabolites listed in Supplemental material Table 1 was made using standard curves (5–5000 pmol/ml) prepared from no cofactor added microsomes and prepared identically to the assay samples.

[2] = set-up: method as in PMID 11587497; details: Wistar rat intestinal microsomes prepared by elution, 30 cm intestine; cited from earlier work
[3] = set-up: method as in PMID 11587497; details: cited from earlier work
[4] = Substrate depletion in in-house rat intestinal microsome pools 1 and 2, combined CYP and UGT cofactors; details: Han-Wistar, rat, microsomes, pH 7.4, CL int,u, in-house combined cofactors, 1 μM compound
Procedure: (§1) Microsomes prepared previously via the optimized method (preparation method 8) were combined to form pool 1 (n = 9 rats). A second set of three preparations was combined to form pool 2 (n = 9 rats). Intestinal microsomes were also prepared from intestinal tissue flash‐frozen in tubes on arrival in the laboratory and kept at −80°C until thawing on ice on the morning of preparation, (n = 3 occasions of n = 3 samples). In addition, for comparative purposes microsomes were also prepared from scraped intestinal tissues. Microsomes were prepared after cutting along the length of intestine and gently scraping the intestinal epithelial with a glass microscope slide (n = 1 occasion, n = 3 samples). Commercially available pooled intestinal microsomes were also used as a comparator to those produced in‐house. […] The microsomes were stored at −80°C prior to experiments.
The microsomes prepared from the final optimized preparation method (method 8) were measured for CYP content on the day of preparation prior to storage. These microsomes (n = 3 samples prepared on n = 3 separate occasions) were subsequently thawed on ice and pooled for pool 1. The pool 1 microsomes were then assayed for testosterone and 4‐NP metabolite formation. Additional intestinal microsomes were created using the identical methodology with the same number of rat intestinal samples (n = 3 samples prepared on n = 3 occasions) and assayed for testosterone and 4‐NP metabolite formation as well as for CYP content on the day of preparation before storage. The microsomes from this second set of preparations were then thawed and pooled to form pool 2.
(§2) Midazolam and 7‐hydroxycoumarin were both incubated at 1 mg/ml and 0.5 mg/ml. The microsomes were incubated on ice with alamethacin (50 μg/mg) for 15 min. […] The samples were quenched with ice cold acetonitrile (3:1 quench to sample) containing the internal standard (AZ1). The total incubation time was 40 min. Quenched samples were stored overnight at −20°C. The following day, the samples were diluted with 200 μl UPH2O, and spun at 3000 rpm (Sorvall legend RT centrifuge) for 15 min, and 200 μl of supernatant taken for analysis.

[5] = Nonspecific protein binding in rat intestinal microsomes (96-well micro-equilibrium dialysis); details: rat intestinal microsomes 1 mg/ml, compound 1 μM
Procedure: Nonspecific protein binding was determined in microsomes (1 mg/ml) using high throughput 96‐well micro‐equilibrium dialysis methodology (HTDialysis, LLC, Gales Ferry, CT, USA). These experiments used dialysis membrane strips with 12–14 kDa molecular mass cut‐off (HTDialysis). The microsomes were constituted in 0.1 M phosphate buffer (pH 7.4). The final concentrations of the test compounds was 1 μM. Microsomes containing the test compound were aliquoted into donor wells in triplicate, and buffer placed in the acceptor wells. The plate was incubated at 37°C and left to equilibrate on a plate shaker (450 rpm) for 4 h. Samples from both the acceptor and donor sides of the membrane were then transferred to 96‐well plates and quenched in acetonitrile containing internal standard (AZ1). The same sample preparation and LC–MS/MS methodology was used as described for the microsomal incubations. Compound MS transitions and retention times are reported in Supplemental material Table 3. Fuinc was calculated as the ratio of acceptor to donor both normalized for internal standard as described previously 41. Correction for protein binding for depletion experiments undertaken at 0.5 mg/ml were made using Equation (4).
(4) fumic,2=1/[P]mic,2/Pmic,1×1−fumic,1/fumic,1+1
where mic,1 denotes 1 mg/ml and mic,2 is 0.5 mg/ml.

[6] = previous study, corrected for fu inc of this study; cited from earlier work
[7] = In vitro-in vivo extrapolation of rat intestinal unbound intrinsic clearance (CL int,u,gut); format: in vitro ADME
Description: The CL int,u values were scaled to give CL int,u,gut using scaling factors for the corresponding microsomal pool (Eq. (5)). The use of scalars from the mean of both pools was also investigated, and was also used for scaling of commercial microsome CL int,u data.
(5) CLint,u,G=CLuint⋅MPPGI⋅Intestine Segment Weight

[8] = Substrate depletion in commercial Han Wistar rat intestinal microsomes, combined or individual CYP and UGT cofactors; details: for microsomal CLint at 1 μM: male, Han Wistar, rat, microsomes, pH 7.4, CL int,u, Commercial Han Wistar pool, 1 mg/ml, 1 μM compound
Procedure: as §1, §2

[9] = Pool 1, FT (1 freeze-thaw cycle)

SMILES	Fold higher mean metabolite formation in pool 2 (vs pool 1) [1]	Maximal rate of testosterone metabolite formation ([1]; Commercial HW, FT)	Maximal rate of testosterone metabolite formation ([1]; Commercial SD, FT)	Maximal rate of testosterone metabolite formation [1, 9]	Maximal rate of testosterone metabolite formation ([1]; Pool 2, FT)	Maximal rate of testosterone metabolite formation ([1]; Pool 2, Fresh)	Maximal rate of testosterone metabolite formation ([1]; Scraping, FT)	further results
C[C@]12CC[C@H]3[C@@H](CCC4=CC(=O)CC[C@@]43C)[C@@H]1C[C@@H](O)[C@@H]2O [16α‐OH TEST]	2.5 fold							
C[C@]12CC[C@H]3[C@@H](C[C@@H](O)C4=CC(=O)CC[C@@]43C)[C@@H]1CC[C@@H]2O [6β‐OH TEST]	2.2 fold	190 ± 53.5 pmol/min/mg	167.2 ± 43.7 pmol/min/mg	85.3 ± 32.5 pmol/min/mg	187.5 pmol/min/mg and 187.5 ± 77.8 pmol/min/mg	113.3 pmol/min/mg and 113.3 ± 30.9 pmol/min/mg	66.1 pmol/min/mg and 66.1 ± 4.8 pmol/min/mg	6β-OH TEST formation, previously reported [2]: 289 ± 5 pmol/min/mg
O=[N+]([O-])c1ccc(O)cc1 [4‐NP, 4‐nitrophenol]								4-NP glucuronidation, previously reported [3]: 7 ± 0.81 nmol/min/mg
C[C@]12CCC(=O)C=C1CC[C@@H]1[C@@H]2CC[C@]2(C)C(=O)CC[C@@H]12 [Androstenedione]		314.5 ± 55.3 pmol/min/mg	371.6 ± 7.2 pmol/min/mg	560.7 ± 6.6 pmol/min/mg	548.7 ± 188.7 pmol/min/mg	429.9 ± 30.9 pmol/min/mg	457.0 ± 60.4 pmol/min/mg	
Cc1ncc2n1-c1ccc(Cl)cc1C(c1ccccc1F)=NC2 [Midazolam]								microsomal CLint at 1 μM ([4]; Pool 1, pool 1, 1 mg/ml, CYP and UGT cofactors): 22 µL/min/mg; microsomal CLint at 1 μM ([4]; Pool 2, pool 2, cell marked with footnotes a and b (1 mg/ml and 0.5 mg/ml)): 18.2 µL/min/mg; fuinc [5]: 0.72; CL int,u in commercially available Sprague-Dawley microsomes [6]: 8.3 µL/min/mg; CL int,u,gut, Combined in-house pools ([7]; mean of pool 1 and pool 2 CL int,u and scaling factors): 6.12 L/h; CL int,u,gut, Pool 1 Mean ([7]; pool 1, pool specific scaling factors, threshold 0.01 l/h): 4.13 L/h; CL int,u,gut, Pool 2 Mean ([7]; pool 2, pool specific scaling factors, threshold 0.01 l/h): 7.36 L/h; Main route of elimination (CYP vs UGT cofactors) ([8]; commercial Han Wistar microsomes, individual cofactors): CYP mediated metabolism; microsomal CLint at 1 μM ([8]; CYP cofactors, CYP cofactors only): 18.2 µL/min/mg; microsomal CLint at 1 μM ([8]; Combined cofactors, combined CYP and UGT cofactors): 12.3 µL/min/mg; microsomal CLint at 1 μM ([8]; UGT cofactors, UGT cofactors only): 2.8 µL/min/mg
